Columns and labels:
Details in all cases: 2 hr; for Percent killing of NRel: NRel induced with 5 μg HuTipMab
[1] = tested on: M. avium; assay: Antibiotic mediated killing of planktonic and newly released (NRel) M. avium
Experimental: (§1) To determine relative susceptibility of planktonic NTM to amikacin, biofilms were prepared and gently washed twice with DPBS as described above, then treated with 200 μL of either: 7H9 (growth control); 7H9+0.5 μg amikacin/mL for M. abscessus 19977, +12 μg amikacin/mL for M. avium, +0.7 μg amikacin/mL for M. abscessus clinical isolate 1 or +lug amikacin/mL for M. abscessus clinical isolate 3. […] Treated biofilms were incubated statically at 37° C. in 5% CO2 and humidity for 2 hr, after which 150 μL was collected from each well and dispensed into 1.5 mL Eppendorf microcentrifuge tubes, then pulse-vortexed with two sterile 3 mm glass beads (Fisher Scientific International, Inc., Hampton, NH) to disrupt aggregates. Suspensions were gently sonicated for 2 min in a waterbath sonicator (Ultrasonic Bath 2.8 L, Fisher Scientific) to further disrupt any aggregates. After sonication, samples were diluted and plated on Middlebrook 7H10 agar and incubated at 37° C. with 5% CO2 in a humidified atmosphere to assess relative CFU.
(§2) To determine azithromycin-mediated killing, the same protocol as above was used with one adjustment. […] Wells were treated with 200 μL of either: 7H9 (growth control); 7H9+5 μg azithromycin/mL for M. abscessus 19977, +16 μg azithromycin/mL for M. avium, +10 μg azithromycin/mL for M. abscessus clinical isolate 1, or +8 μg azithromycin/mL for M. abscessus clinical isolate 3. […] Percent killing was then calculated as [growth control CFU/mL-NRel or planktonic CFU/mL]/[growth control CFU/mL].

[2] = tested on: M. abscessus clinical isolate 1; assay: Antibiotic mediated killing of planktonic and NRel M. abscessus clinical isolate 1
Experimental: as §1, §2

[3] = tested on: M. abscessus clinical isolate 3; assay: Antibiotic mediated killing of planktonic and NRel M. abscessus clinical isolate 3
Experimental: as §1, §2

[4] = tested on: M. abscessus 19977; assay: Antibiotic mediated killing of planktonic and newly released (NRel) M. abscessus 19977
Experimental: as §1, §2

Row | Structure (SMILES) | Percent killing of NRel ([1]; 12 μg amikacin/mL (¼ MIC)) [%] | Percent killing of planktonic bacteria ([1]; 12 μg amikacin/mL (¼ MIC)) [%] | Percent killing of NRel ([2]; 0.7 μg amikacin/mL) [%] | Percent killing of planktonic bacteria ([2]; 0.7 μg amikacin/mL) [%] | Percent killing of NRel ([3]; lug amikacin/mL) [%] | Percent killing of planktonic bacteria ([3]; lug amikacin/mL) [%] | Percent killing of NRel ([4]; 0.5 μg amikacin/mL (¼ MIC)) [%] | Percent killing of planktonic bacteria ([4]; 0.5 μg amikacin/mL (¼ MIC)) [%] | Percent killing of NRel ([1]; 16 μg azithromycin/mL (½ MIC)) [%] | Percent killing of planktonic bacteria ([1]; 16 μg azithromycin/mL (½ MIC)) [%] | Percent killing of NRel ([2]; 10 μg azithromycin/mL) [%] | Percent killing of planktonic bacteria ([2]; 10 μg azithromycin/mL) [%] | Percent killing of NRel ([3]; 8 μg azithromycin/mL) [%] | Percent killing of planktonic bacteria ([3]; 8 μg azithromycin/mL) [%] | Percent killing of NRel ([4]; 5 μg azithromycin/mL (½ MIC)) [%] | Percent killing of planktonic bacteria ([4]; 5 μg azithromycin/mL (½ MIC)) [%]
1 | NCC[C@H](O)C(=O)N[C@@H]1C[C@H](N)[C@@H](O[C@H]2O[C@H](CN)[C@@H](O)[C@H](O)[C@H]2O)[C@H](O)[C@H]1O[C@H]1O[C@H](CO)[C@@H](O)[C@H](N)[C@H]1O [amikacin, Amikacin] | 41 | 17 | 45 | 28 | 47 | 21 | 61 | 23 | – | – | – | – | – | – | – | –
2 | CC[C@H]1OC(=O)[C@H](C)[C@@H](O[C@H]2C[C@@](C)(OC)[C@@H](O)[C@H](C)O2)[C@H](C)[C@@H](O[C@@H]2O[C@H](C)C[C@H](N(C)C)[C@H]2O)[C@](C)(O)C[C@@H](C)CN(C)[C@H](C)[C@@H](O)[C@]1(C)O [azithromycin, Azithromycin] | – | – | – | – | – | – | – | – | 36 | 19 | 47 | 28 | 45 | 25 | 42 | 20

Reference: patent US20260176328A1, “ANTIBODY COMPOSITIONS AND METHODS FOR DISRUPTING NONTUBERCULOUS MYCOBACTERIA BIOFILMS” (priority 2022, published 2026)
